Experimental data taken from ChEMBL document CHEMBL1201862, “PubChem BioAssay data set” (2004).
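Dose response: 5 concentrations. Exposure: 48 h. Format: 96-well plates. Endpoint: linear interpolation; highest concentration if not reached. The concentration for 50% growth inhibition is given as GI50.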 Activity calls are given as the source filed them. Cut-off read from the data, not from the text of the source: active = GI50 up to about 1.1 µM and inactive = higher.

Columns and labels:
Test in all cases: NCI anticancer screen, dose series, 48 h
A498 = system: A498
A549 = system: A549
ACHN = system: ACHN
COLO 205 = system: COLO 205
DU-145 = system: DU-145
HCT-116 = system: HCT-116
HOP-62 = system: HOP-62
HT-29 = system: HT-29
IGROV-1 = system: IGROV-1
MOLT-4 = system: MOLT-4
OVCAR-3 = system: OVCAR-3
OVCAR-4 = system: OVCAR-4
PC-3 = system: PC-3
SK-MEL-28 = system: SK-MEL-28
SK-MEL-2 = system: SK-MEL-2
SK-OV-3 = system: SK-OV-3
SNB-75 = system: SNB-75
U-251 = system: U-251
UACC-257 = system: UACC-257
UO-31 = system: UO-31

Measured: GI50

C/N=c1\sc2nc(C#N)c(C#N)nc2n1C
inactive: A498 20.5 µM | A549 18 µM | ACHN 22.5 µM | COLO 205 16.4 µM | DU-145 36.6 µM | HCT-116 18.9 µM | HOP-62 23.4 µM | HT-29 15.9 µM | IGROV-1 25.2 µM | MOLT-4 22.8 µM | OVCAR-3 24.5 µM | OVCAR-4 22.9 µM | PC-3 40.2 µM | SK-MEL-28 29.2 µM | SK-MEL-2 16.5 µM | SK-OV-3 28 µM | SNB-75 19 µM | U-251 22.4 µM | UACC-257 24.2 µM | UO-31 20.4 µM
